Test in all cases: growth of human tumour cells (NCI), 48 h
The test system of assay [1] is 786-0 renal.
Assay [2] relates to EKVX NSCLC.
The test system of assay [3] is HCT-15 colon.
The test system of assay [4] is K-562 leukemia.
Assay [5] relates to LOX IMVI melanoma.
Assay [6] has as its system SF-295 CNS.
In assay [7] the test system is SF-539 CNS.
For assay [8], the system named is SNB-75 CNS.
The test system of assay [9] is U251 CNS.
Assay [10] has as its system UACC-257 melanoma.

Molecules are shown by their SMILES.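 Five compound concentrations were applied to cells in 96-well plates for 48 hours; endpoints were derived by simple linear interpolation of the resulting dose-response curve. Here, GI50 denotes the concentration required for 50% inhibition of growth. TGI: total growth inhibition.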

This passage reports GI50 and TGI results from PubChem BioAssay (NCI).

Turning to `CC[C@H](C)[C@H](NC(=O)C12CC(NC(C)=O)(C1)C2)C(=O)N(C)[C@H](C[C@@H](OC(C)=O)c1nc(C(=O)N[C@@H](Cc2ccccc2)C[C@H](C)C(=O)OC)cs1)C(C)C`, the GI50 in assay [1] is 0.395 µM; in assay [2], 1.09 µM; in [3] it was 1.09 µM; in [4], 0.101 µM; in assay [5], 0.229 µM; in assay [6], 0.36 µM. Moreover, the GI50 in [7] is 0.438 µM; in [8], 0.123 µM; in assay [9] it was 0.433 µM; in assay [10] it was 7 µM. Besides, the TGI in [1] is over 16.7 µM; in [2] it was over 16.7 µM; in assay [3] it was over 16.7 µM; in [4], over 16.7 µM; in assay [5], over 16.7 µM; in assay [6] it was over 5.25 µM. The TGI in [7] is 1.15 µM; in assay [8], over 16.7 µM; in assay [9], over 16.7 µM; in [10], over 16.7 µM.
For the molecule `CCN1C(=O)N(CC)C2C1NN=c1s/c(=C\c3ccccc3)c(=O)n12` (centres undefined), the GI50 was 0.874 µM in [1]; 0.388 µM in assay [2]; 0.0692 µM in assay [3]; 0.0505 µM in assay [4]; 0.194 µM in [5]; 0.0663 µM in assay [6]. In addition, the GI50 in assay [7] was 0.106 µM; in [8], 0.0487 µM; in assay [9], 0.316 µM; in assay [10], over 72.7 µM. The TGI in assay [1], in assay [2], in assay [3], in [4], in [5] and in assay [6] was over 100 µM in each case. The TGI was 0.554 µM in [7], over 100 µM in assay [9] and over 100 µM in [10].
Take `CCC[CH2][Sn]1([CH2]CCC)[O]C(=O)c2cc(C)ccc2[O]1`: the GI50 in assay [1] is 0.215 µM; in assay [2], 0.579 µM; in assay [3], 0.446 µM; in assay [4], 0.222 µM; in [5] it was 0.309 µM; in assay [6] it was 0.628 µM. In addition, the GI50 is 0.521 µM in assay [7], 0.291 µM in assay [8], 0.462 µM in assay [9] and 0.419 µM in [10]. The TGI was 0.844 µM in assay [1]; 1.94 µM in [2]; 1.45 µM in assay [3]; 1.16 µM in assay [4]; 1.13 µM in assay [5]; 1.99 µM in assay [6]. Further, the TGI is 1.66 µM in assay [7], 1.2 µM in [8], 1.54 µM in [9] and 1.56 µM in assay [10].
With `OC1C2C=CCC1CCC2` (centres undefined), the TGI in assay [1], in assay [2], in [4], in [5], in assay [6] and in assay [7] was over 100 µM throughout. For the same molecule, the TGI in assay [8], in assay [9] and in assay [10] was over 100 µM throughout.
For `C[C@@H]1CN2[C@H]3[C@@H]1CC[C@]31CCC(=O)O[C@]1(C)[C@@H]1CC[C@H]3CCC=C3[C@@H]12`, the GI50 in assay [1], in assay [2], in [3], in assay [4], in [5] and in assay [6] was over 70 µM throughout. Besides, the GI50 in assay [7] is over 70 µM; in [8], 35.3 µM; in assay [9], over 70 µM. Also, the TGI in [1], in assay [2], in assay [3], in assay [4], in [5] and in assay [6] was over 70 µM each time. The TGI in assay [7], in assay [8] and in assay [9] was over 70 µM throughout.
For the molecule `COC(=O)C1=Cc2c(OC)cc(OC)c(OC)c2[C@H](c2cc(OC)c(OC)cc2OC)C1C(=O)OC` (some centres undefined), the TGI in assay [1] was over 100 µM; in assay [2], over 100 µM; in [3] it was over 100 µM; in [4], 46.9 µM; in assay [5] it was over 100 µM; in assay [6] it was over 100 µM. For the same molecule, the TGI in assay [7], in [8] and in [9] was over 100 µM each time.
Take `COc1ccc(-c2cncn2-c2cc(OC)c(OC)c(OC)c2)cc1F`: the GI50 in [1] was under 0.0214 µM; in assay [2], 0.153 µM; in assay [3] it was under 0.01 µM; in assay [4], under 0.01 µM; in [5] it was under 0.01 µM; in assay [6] it was under 0.0142 µM. In addition, the GI50 in [7] is under 0.0232 µM; in assay [8] it was under 0.0119 µM; in assay [9], under 0.0266 µM. In addition, the TGI in assay [1] is over 49.2 µM; in assay [2], over 100 µM; in assay [3], over 100 µM; in [4], over 100 µM; in [5] it was 64.9 µM; in assay [8], over 100 µM. In [9], this molecule had a TGI of over 100 µM.
Consider `Cc1cccc(N=C2NC(=O)C(CC(=O)Nc3ccc(Cl)cc3C)S2)c1` (centres undefined), for which the TGI in assay [1], in [2], in assay [3], in assay [4], in [5] and in assay [6] was over 100 µM in each case. Besides, the TGI in assay [7], in assay [8] and in assay [10] was over 100 µM throughout.
Consider `Cc1cc(=O)[nH]c(CNC(=O)Cc2ccccc2)n1`, for which the TGI in assay [1], in assay [2], in assay [3], in assay [4], in assay [5] and in assay [6] was over 100 µM in each case. For the same molecule, the TGI in assay [7], in [8] and in assay [10] was over 100 µM throughout.
